Measurements as given in patent US20230086007A1, “USE OF DENATONIUM BENZOATE AS A SEED TREATMENT FOR CROPS AS BIRD AND/OR INSECT REPELLENT” (KWS SAAT SE & Co. KGaA, priority 2020, published 2023).

Key:
corn seeds = test: Phytotoxicity: germination rate (KF) of treated corn seeds; settings: for ΔKF: vs no Bitrex
Procedure: In order to evaluate the phytotoxicity of different corn seed treatments, safety tests were conducted. Germination rates of corn seeds treated with various concentrations of denatonium benzoate (Bitrex®) [in g per unit, where 1 unit is 50.000 seeds] were counted after five days at 25° C. Cold test germination rates (CT) were counted after 7 days at 10° C. and 5 days at 25° C. The treatments were compared to untreated seeds.
KF=germination rates counted after 5 days at 25° C. and CT=cold test germination rates counted after 7 days at 10° C. and 5 days at 25° C.

[1] = system: wireworm of genus Agriotes; test: Wireworm repellent pot assay on corn in greenhouse; type: in vivo; settings: eight days after sowing
Procedure: Testing took place in pot assays. Per pot four corn seeds were sown (see FIG. 2A). In each pot four wireworm of genus Agriotes were placed in a central cavity of 5 cm depth (see FIG. 2B). […] The seeds in the pots were germinated and seedlings were grown under controlled conditions in greenhouse.
Eight days after sowing the plant biomass (FIG. 3; Table 6) as well as seed damage (FIG. 4A; Table 6) were assessed.

[2] = system: wireworm of genus Agriotes; test: Wireworm repellent pot assay on corn in climate chamber; type: in vivo; settings: climate chamber 18° C. day/12° C. night; eighteen days after sowing
Procedure: The denatonium benzoate (Bitrex) was tested in concentrations of 0.5 g/unit (wherein 1 unit=50.000 seeds), 1 g/unit and 5 g/unit, either without any other plant protection product (variants 3 and 4) or with RedigoM (active ingredients 100 g/l Prothioconazole (PRO) and 20 g/l Metalaxyl (MTL); (variants 6-8). Sticker was always Sepiret 9290 red, whereby 30 ml/unit has been applied. Variant 1 is the negative control wherein no treatment of the seeds took place, variant 2 is another control only treated with the sticker. Variant 5 is RedigoM and sticker without Bitrex. Variants 9 and 10 serve as positive control. Beside RedigoM and the sticker, the seeds have been treated with either with Force 20 CS (active ingredient: tefluthrin (TEF); or with Poncho® 600 (active ingredient: clothianidin (CLO). Both Force 20 CS and Poncho® 600 are standard treatments against wireworm infestation. All testing were conducted on corn variety Amavit of KWS SAAT SE & Co. KGaA.
Testing has been repeated in climate chambers in order to ensure high humidity and moderate temperatures which results in optimal environmental condition for the wireworm. Thereby, a high level of insect pressure on the seeded corn should be simulated. […]
Eighteen days after sowing the plant biomass (Table 6) as well as seed damage (FIG. 4B; Table 6) were assessed.

crows = settings: wheat seed treatment; cited from earlier work
[3] = corn Amavit, chemical no, Bitrex 0.2 g/u
[4] = corn Amavit, chemical no, Bitrex 0.5 g/u
[5] = corn Amavit, chemical no, Bitrex 1.0 g/u
[6] = corn Amavit, chemical no, Bitrex 2.0 g/u
[7] = corn Amavit, chemical no, Bitrex 5.0 g/u
[8] = corn Amavit, with MaximXL, Bitrex 0.2 g/u
[9] = corn Amavit, with MaximXL, Bitrex 0.5 g/u
[10] = corn Amavit, with MaximXL, Bitrex 1.0 g/u
[11] = corn Amavit, with MaximXL, Bitrex 2.0 g/u
[12] = corn Amavit, with MaximXL, Bitrex 5.0 g/u
[13] = corn Amavit, with RedigoM, Bitrex 0.2 g/u
[14] = corn Amavit, with RedigoM, Bitrex 0.5 g/u
[15] = corn Amavit, with RedigoM, Bitrex 1.0 g/u
[16] = corn Amavit, with RedigoM, Bitrex 2.0 g/u
[17] = corn Amavit, with RedigoM, Bitrex 5.0 g/u
[18] = corn KXB6432, chemical no, Bitrex 0.2 g/u
[19] = corn KXB6432, chemical no, Bitrex 0.5 g/u
[20] = corn KXB6432, chemical no, Bitrex 1.0 g/u
[21] = corn KXB6432, chemical no, Bitrex 2.0 g/u
[22] = corn KXB6432, chemical no, Bitrex 5.0 g/u
[23] = corn KXB6432, with MaximXL, Bitrex 0.2 g/u
[24] = corn KXB6432, with MaximXL, Bitrex 0.5 g/u
[25] = corn KXB6432, with MaximXL, Bitrex 1.0 g/u
[26] = corn KXB6432, with MaximXL, Bitrex 2.0 g/u
[27] = corn KXB6432, with MaximXL, Bitrex 5.0 g/u
[28] = corn KXB6432, with RedigoM, Bitrex 0.2 g/u
[29] = corn KXB6432, with RedigoM, Bitrex 0.5 g/u
[30] = corn KXB6432, with RedigoM, Bitrex 1.0 g/u
[31] = corn KXB6432, with RedigoM, Bitrex 2.0 g/u
[32] = corn KXB6432, with RedigoM, Bitrex 5.0 g/u
[33] = ø of varieties and chemicals, Bitrex 0.2 g/u
[34] = ø of varieties and chemicals, Bitrex 0.5 g/u
[35] = ø of varieties and chemicals, Bitrex 1.0 g/u
[36] = ø of varieties and chemicals, Bitrex 2.0 g/u
[37] = ø of varieties and chemicals, Bitrex 5.0 g/u
[38] = ø of varieties, chemical no, Bitrex 0.2 g/u
[39] = ø of varieties, chemical no, Bitrex 0.5 g/u
[40] = ø of varieties, chemical no, Bitrex 1.0 g/u
[41] = ø of varieties, chemical no, Bitrex 2.0 g/u
[42] = ø of varieties, chemical no, Bitrex 5.0 g/u
[43] = ø of varieties, with MaximXL, Bitrex 0.2 g/u
[44] = ø of varieties, with MaximXL, Bitrex 0.5 g/u
[45] = ø of varieties, with MaximXL, Bitrex 1.0 g/u
[46] = ø of varieties, with MaximXL, Bitrex 2.0 g/u
[47] = ø of varieties, with MaximXL, Bitrex 5.0 g/u
[48] = ø of varieties, with RedigoM, Bitrex 0.2 g/u
[49] = ø of varieties, with RedigoM, Bitrex 0.5 g/u
[50] = ø of varieties, with RedigoM, Bitrex 1.0 g/u
[51] = ø of varieties, with RedigoM, Bitrex 2.0 g/u
[52] = ø of varieties, with RedigoM, Bitrex 5.0 g/u

With CC[N+](CC)(CC(=O)Nc1c(C)cccc1C)Cc1ccccc1.O=C([O-])c1ccccc1 [Bitrex, N-Benzyl-2-(2,6-dimethylanilino)-N, N-diethyl-2-oxoethan-1-aminium benzoate] the “KF germination rate, 5 days at 25° C.” value (corn seeds; [3]) was 98.0%, the “KF germination rate, 5 days at 25° C.” value (corn seeds; [4]) was 96.5% and the “KF germination rate, 5 days at 25° C.” value (corn seeds; [5]) was 97.5%. The “KF germination rate, 5 days at 25° C.” value (corn seeds; [6]) was 97.0%, the “KF germination rate, 5 days at 25° C.” value (corn seeds; [7]) was 98.0% and the “KF germination rate, 5 days at 25° C.” value (corn seeds; [8]) was 98.0%. The “KF germination rate, 5 days at 25° C.” value (corn seeds; [9]) was 98.0%, the “KF germination rate, 5 days at 25° C.” value (corn seeds; [10]) was 96.5% and the “KF germination rate, 5 days at 25° C.” value (corn seeds; [11]) was 95.5%. For the same compound, the “KF germination rate, 5 days at 25° C.” value (corn seeds; [12]) was 97.5%, the “KF germination rate, 5 days at 25° C.” value (corn seeds; [13]) was 100.0% and the “KF germination rate, 5 days at 25° C.” value (corn seeds; [14]) was 97.5%. For the same compound, the “KF germination rate, 5 days at 25° C.” value (corn seeds; [15]) was 96.0%, the “KF germination rate, 5 days at 25° C.” value (corn seeds; [16]) was 96.5% and the “KF germination rate, 5 days at 25° C.” value (corn seeds; [17]) was 99.5%. For the same compound, the “KF germination rate, 5 days at 25° C.” value (corn seeds; [18]) was 92.5%, the “KF germination rate, 5 days at 25° C.” value (corn seeds; [19]) was 96.5% and the “KF germination rate, 5 days at 25° C.” value (corn seeds; [20]) was 96.5%. For the same compound, the “KF germination rate, 5 days at 25° C.” value (corn seeds; [21]) was 96.0%, the “KF germination rate, 5 days at 25° C.” value (corn seeds; [22]) was 95.5% and the “KF germination rate, 5 days at 25° C.” value (corn seeds; [23]) was 98.5%. For the same compound, the “KF germination rate, 5 days at 25° C.” value (corn seeds; [24]) was 99.0%, the “KF germination rate, 5 days at 25° C.” value (corn seeds; [25]) was 97.5% and the “KF germination rate, 5 days at 25° C.” value (corn seeds; [26]) was 98.0%. The “KF germination rate, 5 days at 25° C.” value (corn seeds; [27]) was 97.5%, the “KF germination rate, 5 days at 25° C.” value (corn seeds; [28]) was 94.5% and the “KF germination rate, 5 days at 25° C.” value (corn seeds; [29]) was 95.5%. The “KF germination rate, 5 days at 25° C.” value (corn seeds; [30]) was 96.0%, the “KF germination rate, 5 days at 25° C.” value (corn seeds; [31]) was 95.5% and the “KF germination rate, 5 days at 25° C.” value (corn seeds; [32]) was 97.0%. It also gave a ΔKF (corn seeds; [3]) of 0.0%, a ΔKF (corn seeds; [4]) of −1.5% and a ΔKF (corn seeds; [5]) of −0.5%. For the same compound, the ΔKF (corn seeds; [6]) was −1.0%, the ΔKF (corn seeds; [7]) was 0.0% and the ΔKF (corn seeds; [8]) was 1.5%. The ΔKF (corn seeds; [9]) was 1.5%, the ΔKF (corn seeds; [10]) was 0.0% and the ΔKF (corn seeds; [11]) was −1.0%. It also gave a ΔKF (corn seeds; [12]) of 1.0%, a ΔKF (corn seeds; [13]) of 2.0% and a ΔKF (corn seeds; [14]) of −0.5%. The ΔKF (corn seeds; [15]) was −2.0%, the ΔKF (corn seeds; [16]) was −1.5% and the ΔKF (corn seeds; [17]) was 1.5%. The ΔKF (corn seeds; [18]) was −2.0%, the ΔKF (corn seeds; [19]) was 2.0% and the ΔKF (corn seeds; [20]) was 2.0%. The ΔKF (corn seeds; [21]) was 1.5%, the ΔKF (corn seeds; [22]) was 1.0% and the ΔKF (corn seeds; [23]) was 0.0%. It also gave a ΔKF (corn seeds; [24]) of 0.5%, a ΔKF (corn seeds; [25]) of −1.0% and a ΔKF (corn seeds; [26]) of −0.5%. It also gave a ΔKF (corn seeds; [27]) of −1.0%, a ΔKF (corn seeds; [28]) of 0.0% and a ΔKF (corn seeds; [29]) of 1.0%. It also gave a ΔKF (corn seeds; [30]) of 1.5%, a ΔKF (corn seeds; [31]) of 1.0% and a ΔKF (corn seeds; [32]) of 2.5%. It also gave a ΔKF (corn seeds; [33]) of 0.3%, a ΔKF (corn seeds; [34]) of 0.5% and a ΔKF (corn seeds; [35]) of 0.0%. The ΔKF (corn seeds; [36]) was −0.2%, the ΔKF (corn seeds; [37]) was 0.8% and the ΔKF (corn seeds; [38]) was −1.0%. The ΔKF (corn seeds; [39]) was 0.3%, the ΔKF (corn seeds; [40]) was 0.8% and the ΔKF (corn seeds; [41]) was 0.3%. For the same compound, the ΔKF (corn seeds; [42]) was 0.5%, the ΔKF (corn seeds; [43]) was 0.7% and the ΔKF (corn seeds; [44]) was 1.0%. It also gave a ΔKF (corn seeds; [45]) of −0.5%, a ΔKF (corn seeds; [46]) of −0.7% and a ΔKF (corn seeds; [47]) of 0.0%. The ΔKF (corn seeds; [48]) was 1.0%, the ΔKF (corn seeds; [49]) was 0.3% and the ΔKF (corn seeds; [50]) was −0.2%. For the same compound, the ΔKF (corn seeds; [51]) was −0.2%, the ΔKF (corn seeds; [52]) was 2.0% and the “KF germination rate, 5 days at 25° C.” value (corn seeds; [33]) was 96.9%. For the same compound, the “KF germination rate, 5 days at 25° C.” value (corn seeds; [34]) was 97.2%, the “KF germination rate, 5 days at 25° C.” value (corn seeds; [35]) was 96.7% and the “KF germination rate, 5 days at 25° C.” value (corn seeds; [36]) was 96.4%. The “KF germination rate, 5 days at 25° C.” value (corn seeds; [37]) was 97.5%, the “KF germination rate, 5 days at 25° C.” value (corn seeds; [38]) was 95.3% and the “KF germination rate, 5 days at 25° C.” value (corn seeds; [39]) was 96.5%. For the same compound, the “KF germination rate, 5 days at 25° C.” value (corn seeds; [40]) was 97.0%, the “KF germination rate, 5 days at 25° C.” value (corn seeds; [41]) was 96.5% and the “KF germination rate, 5 days at 25° C.” value (corn seeds; [42]) was 96.8%. The “KF germination rate, 5 days at 25° C.” value (corn seeds; [43]) was 98.3%, the “KF germination rate, 5 days at 25° C.” value (corn seeds; [44]) was 98.5% and the “KF germination rate, 5 days at 25° C.” value (corn seeds; [45]) was 97.0%. For the same compound, the “KF germination rate, 5 days at 25° C.” value (corn seeds; [46]) was 96.8%, the “KF germination rate, 5 days at 25° C.” value (corn seeds; [47]) was 97.5% and the “KF germination rate, 5 days at 25° C.” value (corn seeds; [48]) was 97.3%. For the same compound, the “KF germination rate, 5 days at 25° C.” value (corn seeds; [49]) was 96.5%, the “KF germination rate, 5 days at 25° C.” value (corn seeds; [50]) was 96.0% and the “KF germination rate, 5 days at 25° C.” value (corn seeds; [51]) was 96.0%. The “KF germination rate, 5 days at 25° C.” value (corn seeds; [52]) was 98.3%, the “biomass of plantlets compared with controls” value [1] was “comparable or even more biomass than control plants without wireworm infestations” and the “effect on development of biomass, seed damages and seedling damages” value [2] was “positive effect”. The “corvid repellent effect in wheat” value (crows) was “only provided a modest improvement”.
